The text below walks through data of patent US9790207B2, “Pan-genomic inhibitors of NS5A protein encoded by HCV, pharmaceutical compositions, intermediates for inhibitor synthesis, and their synthesis and application methods” (priority 2015, dated 2017).

Read-outs that look alike come from different tables or passages of the source.

One data set has as its system HCV gT5a replicon. Kind of data set: HCV replicon assay, gT5a. The class given is cell-based, Hepatitis C virus (HCV). The settings on record: Huh7 replicon cells; mean; read-out: gT5a, EC50 (pM) mean. How it is done: (§1) The HCV replicon assay was used to determine the antiviral activity of compounds of general formula 2 (test compounds). The test cell line used in the HCV Replicon Assay was the human hepatoma cell line Huh7 incorporating the HCV replicons synthesized by an outside vendor.
(§2) 96-well plates were seeded with cells at a density of 7.5×10^3 cells per well in 50 μl of assay media. The compound stock solution was made up freshly in an assay medium (DMEM 1×, Cellgro; cat. #10-013-CV) as a 2× stock. A total of 11 serial 3-fold dilutions of test compounds were prepared from the 2× stock in the assay media ranging from 20 nM-0.2 pM final concentrations. At least 4 hours after seeding the cells, compound treatment was initiated by adding 50 μl of compound dilution to the plates. The final concentrations of compound therefore ranged from 10 nM to 0.1 pM when diluted 1:1 in culture media. The final DMSO concentration was 0.5%. Cells and inhibitors were incubated for 3 days at 37° C./5% CO2. The media was removed from the plates by gentle tapping. The cells were fixed with 100 μl 1:1 acetone:methanol for 1 minute, washed three times with PBS buffer, and then blocked with 150 μl/well 10% Fetal Bovine Serum (FBS) in PBS for 1 hour at room temperature. The cells were then washed three times with PBS buffer and incubated with 100 μl/well anti-hepatitis C core mAb (Affinity BioReagents; cat. # MA1-080, 1 mg/ml stock diluted 1:4,000 in 10% FBS-PBS) for 2 hours at 37° C. Then, the cells were washed three times with PBS and incubated with 100 μl/well HRP-Goat Anti-Mouse antibody (diluted 1:3.500 in 10% FBS-PBS) for 1 hour at 37° C. The cells were then washed three times with PBS and developed with an OPD solution, 100 μl/well (1 OPD tablet+12 ml citrate/phosphate buffer+5 μl 30% H2O2 per plate), for 30 minutes in the dark at room temperature. The reaction was stopped with 2N H2SO4 (100 μl/well), and the absorbance was measured at A490 X on a Victor^3 V 1420 multilabel counter (Perkin Elmer).
Background: A replicon is a self-replicating genome or part of one, used to study replication in cells.

In data set [1] the test system is human hepatoma cell line Huh7. Kind of data set: Cytotoxicity, cell viability by ATPLite Kit. Format: cell-based. The settings on record: 96 hours, maximal inhibition. The gist of the method: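 Huh7 cells seeded 18 h before compound addition, then exposed for 96 h at 37° C./5% CO2, triplicate dilutions. Viability read as ATP luminescence (ATPLite) after PBS wash and lysis; CC50 derived from the dilution series.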
Background: ATP-based viability assays read luminescence as a measure of living cells.

A further data set deals with HCV gT2a replicon. Kind of data set: HCV replicon assay, gT2a. The class given is cell-based, Hepatitis C virus (HCV). The settings on record: Huh7 replicon cells; mean. Here is the method:
as §1, §2

The next data set has as its system HCV gT4a replicon. Kind of data set: HCV replicon assay, gT4a. The class given is cell-based, Hepatitis C virus (HCV). Particulars: Huh7 replicon cells; mean; read-out: gT4a, EC50 (pM) mean. Here is the method: as §1, §2
Another data set relates to HCV gT1a replicon. Kind of data set: HCV replicon assay, gT1a. The class given is cell-based, Hepatitis C virus (HCV). The settings on record: Huh7 replicon cells; mean. Here is the method:
as §1, §2

The next data set has as its system HCV gT3a replicon. Kind of data set: HCV replicon assay, gT3a. The class given is cell-based, Hepatitis C virus (HCV). The settings on record: Huh7 replicon cells; mean; read-out: gT3a, EC50 (pM) mean. How it is done:
as §1, §2

In a further data set the test system is HCV gT1b replicon. Kind of data set: HCV replicon assay, gT1b. The class given is cell-based, Hepatitis C virus (HCV). Particulars: Huh7 replicon cells, mean value.

As for `COC(=O)N[C@H](C(=O)N1CCC[C@H]1c1ncc(-c2ccc(C#CC#Cc3cnc([C@@H]4CCCN4C(=O)[C@H](NC(=O)OC)c4ccccc4)[nH]3)c(-c3ccc(N(C)C)cc3)c2)[nH]1)C(C)C.Cl.Cl.Cl` [2(14)•2HCl, [(S)-1-((S)-2-{5-[4′-Dimethylamino-6-(4-{2-[(S)-1-((R)-2-methoxycarbonylamino-2-phenyl-acetyl)-pyrrolidin-2-yl]-3H-imidazol-4-yl}-buta-1,3-diynyl)-biphenyl-3-yl]-1H-imidazol-2-yl}-pyrrolidine-1-carbonyl)-2-methyl-propyl]-carbamic acid methyl ester troihydrochloride], the EC50 (as a rule, the midpoint of the concentration-response curve) in the data set with HCV gT5a replicon turned out to be 52 pM; in the data set with HCV gT2a replicon, 12.8 pM; with HCV gT4a replicon, 10.8 pM; in the data set on HCV gT1a replicon, 138 pM; in the data set on HCV gT3a replicon, 38.5 pM; in the data set on HCV gT1b replicon (10% FBS, read-out: gT1b 10% FBS, EC50 (pM) mean), 1.51 pM. For the same compound, the EC50 in the data set with HCV gT1b replicon (40% NHS, read-out: gT1b 40% NHS, EC50 (pM) mean) was 13 pM. Moreover, in data set [1], the “Cytotox gT1b 10% FBS max. inh.” value stood at 23%.
